According to US20050267128A1, “Compounds, compositions and methods of modulating the mitochondrial apoptosis-induced channel (MAC)” (priority 2004, published 2005):
“Also recorded” adds a separate entry of the source.

How the values were obtained:
[1] = tested on: MAC from apoptotic HeLa cells; test: Blockade of MAC in partially purified fractions from apoptotic HeLa cells treated with staurosporine; assay type: biochemical; settings: unpublished results
[2] = tested on: mitochondrial apoptosis-induced channel (MAC); test: Patch clamp of MAC in proteoliposomes containing mitochondrial outer membranes of apoptotic FL5.12 cells; assay type: biochemical, mouse; settings: for voltage dependence of MAC blockade: current voltage curves between +40 mV and −40 mV; for Hill coefficient of MAC blockade / IC50 / IC50 for MAC, stated in words: patch clamp, proteoliposomes; for IC50: 150 mM KCl 5 mM HEPES pH 7.4, read-out: IC50 for blockade of MAC (inhibition of conductance); for reversibility of MAC blockade on removal by perfusion of the bath: wash out with 150 mM KCl 5 mM HEPES
Method: Hematopoietic FL5.12 cells are a mouse leukemia cell line that enters apoptosis after withdrawal of the growth factor interleukin-3 (IL-3) (Gross, A., Jockel, J., Wei, M. C. and Korsmeyer, S. J. (1998). Parental FL5.12 cells were cultured as previously described (Gross, A., Jockel, J., Wei, M. C. and Korsmeyer, S. J. (1998) EMBO J. 17, 3878-85) in Iscove's Modified Eagle Media (IMEM), 10% Fetal Bovine Serum, 10% WEHI-3B supplement (filtered supernatant of WEHI-3B cells secreting IL-3). Cultures were kept below 1.5 million cells/ml. Cells were washed three times in media without IL-3 (WEHI supplement) to induce apoptosis twelve hours prior to the isolation of mitochondria (Zamzami, N., Susin, S. A., Marchetti, P., Hirsch, T., Gomez-Monterrey, I., Castedo, M. and Kroemer, G. (1996).
Mitochondria were isolated from 2-15 g of FL5.12 cells as previously described for outer membrane preparations (Guo, L., Pietkiewicz, D., Pavlov, E. V., Kasianowicz, J. J., Korsmeyer, S. J., Antonsson, B. and Kinnally, K. W. (2004) American Journal of Physiology, Cell Biology. 286, C1109-17; Pavlov, E. V., Priault, M., Pietkiewicz, D., Cheng, E.H.-Y., Antonsson, B., Manon, S., Korsmeyer, S. J., Mannella, C. A. and Kinnally, K. W. (2001) J. Cell Biology 155, 725-732). Outer membranes were stripped from the inner membranes by French pressing isolated mitochondria using modifications of the method of Decker and Greenawalt (Decker, G. L. and Greenawalt, J. W. (1977) J. Ultrastr. Res. 59, 44-56) as described in (Pavlov, E. V., Priault, M., Pietkiewicz, D., Cheng, E.H.-Y., Antonsson, B., Manon, S., Korsmeyer, S. J., Mannella, C. A. and Kinnally, K. W. (2001) J. Cell Biology 155, 725-732). French pressing was done at 2000 PSI in 460 mM Mannitol 140 mM Sucrose 2 mM EDTA 10 mM HEPES pH 7.4. The pressed suspension was diluted 1:1 with 230 mM Mannitol 70 mM sucrose 1 mM EDTA 5 mM HEPES pH 7.4 and centrifuged at 10,000 rpm (12,000 g) for 10 minutes. Outer membranes were separated from inner membranes as described by Mannella (Mannella, C. A. (1982) J. Cell Biol. 94, 680-687).

[3] = tested on: permeability transition pore (PTP); settings: mitochondria; cited from earlier work
neurons = settings: cited from earlier work

IC50 [2] [µM] | Compound | blockade of MAC compared with FL5.12 preparation [1] | current flow through MAC upon perfusion of the bath ([2]; 50 μM, +20 mV) | voltage dependence of MAC blockade [2] | Hill coefficient of MAC blockade [2] | reversibility of MAC blockade on removal by perfusion of the bath [2] | concentration that blocks the PTP [3] [µM] | concentration that blocks mitochondrial depolarization induced by glutamate (neurons) [µM] | effect on MAC activity ([2]; 300 μM) | effect on MAC activity ([2]; no concentration stated (FIG. 3B)) | IC50 for MAC, stated in words [2]
39 | CCCCOc1cc(C(=O)NCCN(CC)CC)c2ccccc2n1 [dibucaine] | similar | rapidly reduced | not voltage dependent | 1.3±0.1 | reversible | 50 to 100 | 50 to 100 |  |  | 
 | CCN(CC)CC(=O)Nc1c(C)cccc1C [lidocaine] |  |  |  |  |  |  |  | little effect | limited effects; also recorded: no effect | mM to M
 | CC(C)NCC(O)COc1cccc2ccccc12 (stereo not drawn) [propranolol] |  |  | not voltage dependent | 2.1±0.2 | not reversible |  |  |  |  | 
0.9 | CN1CCN(CCCN2c3ccccc3Sc3ccc(C(F)(F)F)cc32)CC1 [trifluoperazine] |  |  | not voltage dependent | 1.4±0.2 | not reversible | 10 to 20 | 10 to 20 |  |  | high nanomolar range
